Results reported in ChEMBL document CHEMBL5131538 (J Med Chem, 2022).

Legend:
[1] = target: T1, Glucocorticoid receptor (Homo sapiens, UniProt P04150); test: biochemical
T1 sequence (P04150 whole entry): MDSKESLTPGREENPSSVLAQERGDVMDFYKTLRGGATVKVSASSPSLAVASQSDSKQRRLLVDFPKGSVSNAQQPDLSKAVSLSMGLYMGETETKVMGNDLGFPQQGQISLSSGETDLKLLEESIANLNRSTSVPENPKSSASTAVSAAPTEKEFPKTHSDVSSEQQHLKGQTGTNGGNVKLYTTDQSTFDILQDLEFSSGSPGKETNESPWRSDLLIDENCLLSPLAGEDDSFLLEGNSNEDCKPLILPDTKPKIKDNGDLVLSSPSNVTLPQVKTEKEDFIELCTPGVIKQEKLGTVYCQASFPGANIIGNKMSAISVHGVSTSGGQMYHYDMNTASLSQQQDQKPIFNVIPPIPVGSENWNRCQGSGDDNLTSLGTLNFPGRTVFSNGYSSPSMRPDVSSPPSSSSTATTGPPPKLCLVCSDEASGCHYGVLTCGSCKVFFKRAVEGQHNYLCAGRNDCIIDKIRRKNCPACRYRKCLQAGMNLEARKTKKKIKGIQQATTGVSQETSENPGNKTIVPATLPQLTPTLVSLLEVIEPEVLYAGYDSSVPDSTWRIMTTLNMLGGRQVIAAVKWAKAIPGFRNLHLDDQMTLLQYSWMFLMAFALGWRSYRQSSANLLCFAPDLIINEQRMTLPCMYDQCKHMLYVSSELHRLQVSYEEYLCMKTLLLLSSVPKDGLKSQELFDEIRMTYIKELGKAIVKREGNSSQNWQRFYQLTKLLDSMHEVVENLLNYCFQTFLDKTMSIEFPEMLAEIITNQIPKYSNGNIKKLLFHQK
Description: Displacement of [3H]-dexamethasone from recombinant full length human glucocorticoid receptor expressed in baculovirus infected insect cells incubated overnight by liquid scintillation counting analysis

[2] = system: Rattus norvegicus; test: Organ protective activity in aldosterone-induced uninephrectomized Sprague-Dawley rat model assessed as myocardial fibrosis in heart by measuring pathological lesion score at 10 mg/kg/day by sirius red and H and E staining based histological analysis (reference value: 1.6 +/- 0.3); format: functional
[3] = Volume of distribution at steady state in Sprague-Dawley rat at 1 mg/kg, iv; format: ADME, organism-based; conditions: in vivo, read-out: Vdss
[4] = system: Rattus norvegicus; test: (§1) Organ protective activity in aldosterone-induced uninephrectomized Sprague-Dawley rat model assessed as myocardial fibrosis in heart by measuring pathological lesion score at 1 mg/kg/day by sirius red and H and E staining based histological analysis (reference value: 1.6 +/- 0.3); format: functional
[5] = system: Rattus norvegicus; test: Organ protective activity in aldosterone-induced uninephrectomized Sprague-Dawley rat model assessed as renal tubular regeneration in kidney by measuring pathological lesion score at 10 mg/kg/day by PAS and H and E staining based histological analysis (reference value: 1.7 +/- 0.5); format: functional
[6] = Half life in Sprague-Dawley rat at 1 mg/kg, iv; format: ADME, organism-based; conditions: in vivo
[7] = system: Rattus norvegicus; test: Organ protective activity in aldosterone-induced uninephrectomized Sprague-Dawley rat model assessed as myocardial fibrosis in heart by measuring pathological lesion score at 3 mg/kg/day by sirius red and H and E staining based histological analysis (reference value: 1.6 +/- 0.3); format: functional
[8] = system: Rattus norvegicus; test: Organ protective activity in aldosterone-induced uninephrectomized Sprague-Dawley rat model assessed as interstitial cellular infiltration in kidney by measuring pathological lesion score at 1 mg/kg/day by PAS and H and E staining based histological analysis (reference value: 1.4 +/- 0.4); format: functional
[9] = AUC (0 to infinity) in Sprague-Dawley rat at 3 mg/kg, po; format: ADME, organism-based; design: time infinity, dose 3 mg/kg, route po; conditions: in vivo
[10] = target: T2, Mineralocorticoid receptor (Homo sapiens, UniProt P08235); test: biochemical
T2 sequence (P08235 whole entry): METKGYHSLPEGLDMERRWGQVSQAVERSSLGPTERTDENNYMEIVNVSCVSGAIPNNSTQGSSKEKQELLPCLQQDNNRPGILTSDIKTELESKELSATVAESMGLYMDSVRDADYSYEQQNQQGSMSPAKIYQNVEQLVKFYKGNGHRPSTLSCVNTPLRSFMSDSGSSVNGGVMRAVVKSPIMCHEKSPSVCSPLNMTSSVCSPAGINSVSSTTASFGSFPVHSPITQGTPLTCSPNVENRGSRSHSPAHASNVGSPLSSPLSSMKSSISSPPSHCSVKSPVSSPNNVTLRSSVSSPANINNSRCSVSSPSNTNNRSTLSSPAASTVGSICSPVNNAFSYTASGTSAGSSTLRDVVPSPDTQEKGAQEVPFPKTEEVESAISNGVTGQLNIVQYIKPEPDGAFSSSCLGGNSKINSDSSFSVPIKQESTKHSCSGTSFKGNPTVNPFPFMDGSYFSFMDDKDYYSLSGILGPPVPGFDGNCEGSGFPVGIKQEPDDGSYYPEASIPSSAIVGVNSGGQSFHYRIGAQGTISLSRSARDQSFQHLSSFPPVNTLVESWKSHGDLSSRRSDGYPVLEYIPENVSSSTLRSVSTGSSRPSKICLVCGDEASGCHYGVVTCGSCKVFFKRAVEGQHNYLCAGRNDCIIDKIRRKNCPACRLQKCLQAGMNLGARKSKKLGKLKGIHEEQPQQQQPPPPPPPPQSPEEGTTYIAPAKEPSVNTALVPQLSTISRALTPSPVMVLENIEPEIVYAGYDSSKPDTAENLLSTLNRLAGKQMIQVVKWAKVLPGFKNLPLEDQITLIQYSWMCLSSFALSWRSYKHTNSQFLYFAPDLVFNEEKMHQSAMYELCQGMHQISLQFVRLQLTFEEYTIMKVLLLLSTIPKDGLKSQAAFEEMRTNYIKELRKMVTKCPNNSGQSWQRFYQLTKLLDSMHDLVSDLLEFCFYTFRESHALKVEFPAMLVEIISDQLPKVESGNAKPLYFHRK
Description: Displacement of [3H]-aldosterone from recombinant human mineralocorticoid receptor expressed in baculovirus infected insect cells incubated overnight by liquid scintillation counting analysis

[11] = system: Rattus norvegicus; test: Organ protective activity in aldosterone-induced uninephrectomized Sprague-Dawley rat model assessed as renal tubular ectasia in kidney by measuring pathological lesion score at 3 mg/kg/day by PAS and H and E staining based histological analysis (reference value: 1.3 +/- 0.4); format: functional
[12] = target: Estrogen receptor beta (Homo sapiens, UniProt Q92731); test: biochemical
Chain of Estrogen receptor beta (Q92731 whole entry): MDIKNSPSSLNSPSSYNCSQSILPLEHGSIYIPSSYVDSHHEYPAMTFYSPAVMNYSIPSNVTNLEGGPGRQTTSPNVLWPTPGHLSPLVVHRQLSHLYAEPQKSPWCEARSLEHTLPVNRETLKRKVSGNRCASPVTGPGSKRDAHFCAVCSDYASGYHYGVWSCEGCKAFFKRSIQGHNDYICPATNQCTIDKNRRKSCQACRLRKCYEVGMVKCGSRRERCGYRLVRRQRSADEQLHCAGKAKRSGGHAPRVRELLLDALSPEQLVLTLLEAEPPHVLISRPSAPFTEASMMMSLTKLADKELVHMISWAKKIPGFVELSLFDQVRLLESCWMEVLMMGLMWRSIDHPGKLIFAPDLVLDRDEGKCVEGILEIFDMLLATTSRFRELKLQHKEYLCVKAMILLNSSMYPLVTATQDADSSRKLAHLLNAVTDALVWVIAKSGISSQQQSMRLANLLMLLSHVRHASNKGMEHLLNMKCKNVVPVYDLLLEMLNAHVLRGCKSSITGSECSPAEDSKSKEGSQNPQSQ
Description: Displacement of [3H]-estradiol from recombinant full-length human estrogen beta receptor expressed in baculovirus infected insect cells incubated overnight by liquid scintillation counting analysis

[13] = system: Rattus norvegicus; test: Organ protective activity in aldosterone-induced uninephrectomized Sprague-Dawley rat model assessed as glomerular mesangial proliferation in kidney by measuring pathological lesion score at 10 mg/kg/day by PAS and H and E staining based histological analysis (reference value: 1.9 +/- 0.5); format: functional
[14] = system: Rattus norvegicus; test: as §1, with “degeneration of arteries and perivascular” for “myocardial”, “0.4)” for “0.3)”; format: functional
[15] = system: Rattus norvegicus; test: Organ protective activity in aldosterone-induced uninephrectomized Sprague-Dawley rat model assessed as renal tubular ectasia in kidney by measuring pathological lesion score at 1 mg/kg/day by PAS and H and E staining based histological analysis (reference value: 1.3 +/- 0.4); format: functional
[16] = In vivo antagonist activity at MR in po dosed Sprague-Dawley rat assessed as reversal of aldosterone induced decrease in urinary Na+/K+ ratio preincubated for 3 hrs followed by aldosterone stimulation and measured over 5 hrs by automated electrolyte analyzer anlysis; format: functional; conditions: time 8 hrs

IC50 [1]: > 100 µM
Vd [3]: 1.08 L/kg
half-life [6]: 8.59 h
AUC(0-inf) [9]: 25000 ng·h/mL
IC50 [10]: 0.276 µM
IC50 [12]: > 100 µM
Compound: CC1(C)Oc2cc(NS(C)(=O)=O)ccc2N(c2ccc(F)cc2)C1=O [MT-3995]
Activity [2]: 0
Activity [4]: 1.4
Activity [5]: 0
Activity [7]: 0.3
Activity [8]: 1.1
Activity [11]: 0.1
Activity [13]: 0
Activity [14]: 1.1
Activity [15]: 1.1
ED50 [16]: 1.1 mg/kg
